The values that follow come from patent US6890948B1 (Cancer Research Technology Limited, priority 2000, dated 2005).

SMILES strings stand for the structures. pIC50: −log10 of the molar value. Where two headings read alike, the source gives them in different places. Marks after values point to notes of the source that are not given here.

For data set [1], the system named is Hamster lung fibroblast V79 cells. Briefly: Cytotoxic effects of compounds of formula (I) with horseradish peroxidase (HRP), clonogenic cell survival. Format: cell-based. Particulars: 2 hours treatment, mean ± standard error of three experiments unless n given. How it is done: Hamster lung fibroblast V79 cells were obtained from the European Tissue Culture Collection. Cells were grown over the weekend in […] tissue culture flats as attached cells in Eagle's Modified Essential Medium (EMEM) supplemented with 10% foetal calf serum, 2 mM L-glutamine, 100 U/mL penicillin and 100 μg/mL streptomycin, and incubated in a humidified incubator at 37° C., in 5% CO2/air. […] The trypsin was deactivated by the addition of 10 mL spinner modified EMEM (supplemented with 7.5% foetal calf serum) and the cells allowed to grow in a spinning culture, pre-gassed with 5% CO2/air, maintaining the cells in logarithmic growth.
Cells were prepared for toxicity measurements by counting and plating 200, 2000 or 20,000 cells/6 cm Petri dish in 3 mL EMEM in triplicate for each sample. The cells were allowed to attach for at least 1 hour, then the medium removed and 2 mL phenol red free Hanks' balanced salt solution added, either alone (control) or with 50 or 100 μM of the compound of formula (I) to be tested. HRP (50 μL of 0.048 mg/mL) was added to the test dishes requiring it and the cells left in the incubator for 0, 0.5, 1, 1.5 or 2 hours. After the incubation time the drug was removed, the cells washed with 2 mL Hanks and then 4 mL EMEM added. The cells were allowed to grow for 7 days to colonies of >50 cells. After 7 days the medium was removed and the cells fixed with 75% methanol for 5 minutes. The methanol was then removed and the cells stained with 1% w/v crystal violet for 5 minutes. The cells were washed and colonies counted. Cell survival was determined by calculating the ratio of colonies growing compared to untreated control cells.
In table 1, values are the surviving fraction after 2 hours treatment with the IAA derivatives at the concentrations shown together with HRP (1.2 μg/mL). Unless otherwise indicated (by n=number of individual experiments), the means±the standard errors of three experiments are given.

Data set [2] relates to FaDu, nasopharyngeal squamous carcinoma cells. Briefly: GDEPT: clonogenic survival of cells transiently transfected with the HRP gene versus untransfected cells. It counts as cell-based, human. As to conditions: for pIC50: Homo sapiens; for factor: ratio of IC50 for transfected and untransfected cells. The procedure: (§1) Human bladder carcinoma T24 cells, MCF-7 mammary carcinoma cells (both from European Collection of Cell Cultures, Salisbury, UK), FaDu, nasopharyngeal squamous carcinoma cells (American Type Culture Collection, Manassas, Va.) were maintained in Dulbecco's modified Eagle's medium (DMEM) supplemented with 10% foetal calf serum, 2 mM L-glutamine, 100 U/ml penicillin, 100 µg/ml streptomycin, and incubated in a humidified incubator at 37° C. and 5% CO2/air. Only cells which tested negative for mycoplasma infection were utilised.
(§2) Following drug exposure, cells were rinsed with PBS and grown for 8 to 20 days in complete DMEM supplemented with feeder cells (V79 cells exposed to 250 Gy ^60Co irradiation). After fixation and staining with 2.5% crystal violet w/v in methylated spirit, colonies of >50 cells were scored. Surviving fractions were evaluated relative to HBSS-treated controls.

In data set [3] the test system is MCF-7 mammary carcinoma cells. The description is as above. It counts as cell-based, human. As to conditions: for pIC50: Homo sapiens; for factor: MCF-7, ratio of IC50 for transfected and untransfected cells. The procedure:
as §1, §2

Data set [4] has as its system Human bladder carcinoma T24 cells. Described as above. It counts as cell-based. As to conditions: for pIC50: Homo sapiens, T-24, 24 h; for factor: ratio of IC50 for transfected and untransfected cells. How it is done:
as §1, §2

The nature of data set [5]: Distribution of 5-fluoro-indole acetic acid in vivo in mice with the Carcinoma NT tumour. Particulars: 50 mg/kg i.p., female CBA mice bearing Carcinoma NT tumour, up to 2 hours. The procedure:
5-fluoro-indole acetic acid (5 mg/mL) in 2% v/v ethanol/water was adjusted to pH 7.4 with NaOH and injected i.p. at a dose of 50 mg/kg into female CBA mice bearing the Carcinoma NT tumour (see example 8 for details). The mice were sacrificed up to 2 hours after drug administration and the blood and tissues removed immediately and placed on ice. The whole blood was spun down and the plasma stored at −20° C. Tissue sample were weighed and homogenised in 4 to 9 volumes of ice-cold water. The homogenised tissue was then stored at −20° C.
For HPLC analysis, plasma (50 μL) was mixed with IAA internal standard (130 μM, 25 μL) and protein precipitated with acetonitrile (50 μL). The samples were spun down and the supernatant injected directly for HPLC analysis. For tissue levels, samples (250 μL) was mixed with IAA internal standard (130 μM, 25 μL) and precipitated with acetonitrile (250 μL) for direct injection for HPLC analysis. HPLC analysis was carried out with a Hypersil SODS 125×4.6 mm column eluting with A; 75% acetonitrile and B: 20 mM ammonium acetate (pH 5.1) with a gradient of 15-70% A in 10 minutes at 2 mL/minute. Detection was at 290 nm using a Waters 486 variable wavelength detector.

The mark [6] stands for this setting: 100 μM IAA derivative together with HRP (1.2 μg/mL), 0^a = all cells killed, 1^b = no detectable effect.
Setting [7] is: 50 μM IAA derivative together with HRP (1.2 μg/mL).

A word on the pIC50: it is the negative decadic logarithm of the IC50, by convention in mol/L. The compound `O=C(O)Cc1c[nH]c2ccc(Br)cc12` [Compound 5-bromo, 5-bromo-indole-3-acetic acid] registered a surviving fraction in data set [1] (setting [6]) of 0.00004 ± 0.00003. The pIC50 is 5.15 in data set [2] (24 h, read-out: IC50 HRP+); 3.22 in data set [2] (24 h, read-out: IC50 HRP−); 5.15 in data set [3] (MCF7, 24 h, read-out: IC50 HRP+); 3.30 in data set [3] (MCF7, 24 h, read-out: IC50 HRP−); 5.15 in data set [4] (read-out: IC50 HRP+, T24 (anoxic), transfected cells, 24 hours exposure in anaerobic cabinet); 5.22 in data set [4] (read-out: IC50 HRP+, T24 (normoxic), transfected cells, 24 hours exposure, estimated from survival curves). Also, the pIC50 in data set [4] (read-out: IC50 HRP−, T24 (anoxic), untransfected cells, 24 hours exposure in anaerobic cabinet) was 3.00; in data set [4] (read-out: IC50 HRP−, T24 (normoxic), untransfected cells, 24 hours exposure), 3.22. The factor in data set [2] came to 86; in data set [3], 71; in data set [4] (T24 (anoxic)), 43; in data set [4] (T24 (normoxic)) it was 100.
For `O=C(O)Cc1c[nH]c2ccc(F)cc12` [Compound 5-fluoro, 5-fluoro-indole-3-acetic acid], the “concentration in the tumour” value in data set [5] is “sufficient concentrations to achieve a cytotoxic effect are attained in the tumour”. In data set [5], the “levels in the kidney” value is given as “High levels in the kidney”. The surviving fraction in data set [1] (setting [7]) is given as 0.0045 ± 0.003; in data set [1] (setting [6]), 0^a. Moreover, the pIC50 in data set [2] (transfected cells, 24 hours exposure, read-out: IC50 HRP+) is 4.70; in data set [2] (untransfected cells, 24 hours exposure, read-out: IC50 HRP−), 2.92; in data set [3] (MCF7, MCF-7, transfected cells, 24 hours exposure, read-out: IC50 HRP+) it was 3.60; in data set [3] (MCF7, MCF-7, untransfected cells, 24 hours exposure, read-out: IC50 HRP−) it was 3.40; in data set [4] (T24 (anoxic), transfected cells, 24 hours exposure in anaerobic cabinet, read-out: IC50 HRP+) it was 4.52; in data set [4] (T24 (anoxic), untransfected cells, 24 hours exposure in anaerobic cabinet, read-out: IC50 HRP−) it was 2.64. The pIC50 in data set [4] (T24 (normoxic), transfected cells, 24 hours exposure, estimated from survival curves, read-out: IC50 HRP+) was 4.40; in data set [4] (T24 (normoxic), untransfected cells, 24 hours exposure, read-out: IC50 HRP−) it was 2.46. Moreover, the factor in data set [2] came to 60; in data set [3], 1.6; in data set [4] (T24 (anoxic)), 77; in data set [4] (T24 (normoxic)), 88.
By melting point is commonly meant the temperature, or range, at which the solid turns liquid. As to `O=C(O)Cc1c[nH]c2c(F)cccc12` [SR022, 7-Fluoroindole-3-acetic acid], the melting point was in the range of 159 to 161 °C. The compound also registered a surviving fraction in data set [1] (setting [7]) of 0.053 ± 0.022. Further, the surviving fraction in data set [1] (setting [6]) is reported as 0^a.
For `O=C(O)Cc1c[nH]c2ccc(Cl)cc12` [SR024, 5-Chloroindole-3-acetic acid], the melting point lay within 160 to 161 °C. In data set [1] (setting [6]), this compound showed a surviving fraction of 0.0027 ± 0.0022.
As to `Cc1[nH]c2ccc(F)cc2c1CC(=O)O` [SR036, 5-Fluoro-2-methylindole-3-acetic acid], the melting point fell in the range of 182 to 184 °C.
`O=C(O)Cc1c[nH]c2cccc(F)c12` [SR039, 4-Fluoroindole-3-acetic acid] displayed a melting point of 129 to 131 °C. In data set [1] (setting [6]), this compound had a surviving fraction of 0.000085 ± 0.00007.
In the same order, the values of `O=C(O)Cc1c[nH]c2cc(F)ccc12` [SR043, 6-Fluoroindole-3-acetic acid] are 161 to 163 °C and 0.00995 (n = 2).
On the same counts, the results for `O=C(O)Cc1c[nH]c2c(Cl)cccc12` [SR052, 7-Chloroindole-3-acetic acid] are 164 to 165 °C and 0.000042 (n = 1).
`O=C(O)Cc1c[nH]c2cc(Cl)ccc12` [SR058, 6-Chloroindole-3-acetic acid] returned a melting point of 183 to 185 °C. Further, the surviving fraction in data set [1] (setting [7]) is listed as 0.00085 (n = 1). The surviving fraction in data set [1] (setting [6]) is recorded as 0^a.
In turn, `O=C(O)Cc1c[nH]c2cc(Br)ccc12` [SR069, 6-Bromoindole-3-acetic acid] displayed a melting point of 174 to 176 °C. Besides, the surviving fraction in data set [1] (setting [7]) came out at 0.0031 ± 0.0023. Further, the surviving fraction in data set [1] (setting [6]) is 0^a.
For `O=C(O)Cc1c[nH]c2ccc(OC(F)(F)F)cc12` [SR073, 5-Trifluoromethoxyindole-3-acetic acid], the melting point lay within 120 to 122 °C.
The same measure, in the same setting: as for `O=C(O)Cc1c[nH]c2cc(Cl)cc(Cl)c12` [SR085, 4,6-Dichloroindole-3-acetic acid], the figure is 223 to 224 °C.
On the same count and under the same terms, as for `O=C(O)Cc1c[nH]c2c(F)cc(Cl)cc12` [SR091, 5-Chloro-7-fluoroindole-3-acetic acid], the figure is 164 to 166 °C; as for `Cc1cc(F)c2[nH]cc(CC(=O)O)c2c1` [SR109, 7-Fluoro-5-methylindole-3-acetic acid], 138 to 140 °C.
Take `Cn1cc(CC(=O)O)c2ccc(Cl)cc21` [SR139, 6-Chloro-1-methylindole-3-acetic acid]: the melting point was 130 to 132 °C (dec.).
On the same count and under the same terms, as for `Cc1ccc(F)c2[nH]cc(CC(=O)O)c12` [SR148, 7-Fluoro-4-methylindole-3-acetic acid], the figure is 162 to 164 °C (dec.); as for `O=C(O)Cc1c[nH]c2ccc(-c3ccc(Cl)cc3)cc12` [SR150, 5-(4-Chlorophenyl)indole-3-acetic acid], 166 to 168 °C.
